Each block holds one molecule with its values, some of them ahead of it. The source made the active and inactive calls.
Key:
Mu-type opioid receptor = Mu-type opioid receptor (Homo sapiens, UniProt P35372); assay: Counterscreen for agonists of heterodimerization of the mu 1 (OPRM1) and delta 1 (OPRD1) opioid receptors: Luminescence-based cell-based high throughput dose response assay to identify agonists of OPRM1 homodimerization.; format: functional;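 also: U2OS cells expressing OPRM1 and beta-arrestin as split beta-galactosidase partners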
Chain of Mu-type opioid receptor (P35372 whole entry): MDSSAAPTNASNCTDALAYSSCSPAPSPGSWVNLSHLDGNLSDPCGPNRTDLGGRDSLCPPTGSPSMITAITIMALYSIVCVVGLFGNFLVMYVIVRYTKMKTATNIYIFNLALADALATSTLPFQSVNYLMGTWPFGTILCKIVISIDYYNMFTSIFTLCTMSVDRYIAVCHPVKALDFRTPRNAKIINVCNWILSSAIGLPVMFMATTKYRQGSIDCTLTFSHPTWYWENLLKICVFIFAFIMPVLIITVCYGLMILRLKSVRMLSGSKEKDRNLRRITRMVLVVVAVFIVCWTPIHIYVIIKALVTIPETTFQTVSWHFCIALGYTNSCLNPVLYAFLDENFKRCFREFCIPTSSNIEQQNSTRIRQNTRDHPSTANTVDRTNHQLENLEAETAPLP

Caspase-6 = molecular target: T1, Caspase-6 (Homo sapiens, UniProt P55212); assay: inhibition of CASP6 peptide cleavage – biochemical, VEID-R110 fluorescence, cherry-pick, dose response (AID 720632)
T1 sequence (P55212 whole entry): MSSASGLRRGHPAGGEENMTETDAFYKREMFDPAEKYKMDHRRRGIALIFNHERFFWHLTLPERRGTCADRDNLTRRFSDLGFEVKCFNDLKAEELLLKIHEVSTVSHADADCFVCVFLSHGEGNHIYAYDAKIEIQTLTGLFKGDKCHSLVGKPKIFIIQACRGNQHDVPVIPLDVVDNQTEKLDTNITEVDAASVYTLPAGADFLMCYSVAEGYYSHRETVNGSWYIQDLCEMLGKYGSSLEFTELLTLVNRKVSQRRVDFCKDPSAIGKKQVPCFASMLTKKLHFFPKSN

[1] = molecular target: T2, Tyrosyl-DNA phosphodiesterase 2 (Homo sapiens, UniProt O95551); assay: potency against TDP2 phosphodiesterase activity – biochemical, epi absorbance, IC50, dose response (AID 743297)
T2 sequence (O95551 whole entry): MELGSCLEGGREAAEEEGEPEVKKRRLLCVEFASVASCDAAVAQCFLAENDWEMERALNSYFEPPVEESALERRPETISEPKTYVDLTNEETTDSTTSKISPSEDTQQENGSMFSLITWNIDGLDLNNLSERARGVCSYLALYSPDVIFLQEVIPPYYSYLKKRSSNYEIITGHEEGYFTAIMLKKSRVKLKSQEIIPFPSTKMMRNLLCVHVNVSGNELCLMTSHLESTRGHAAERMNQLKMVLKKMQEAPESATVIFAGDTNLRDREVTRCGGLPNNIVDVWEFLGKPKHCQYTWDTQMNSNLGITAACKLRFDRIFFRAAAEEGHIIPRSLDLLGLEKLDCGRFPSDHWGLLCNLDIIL

[2] = molecular target: 1-phosphatidylinositol 4,5-bisphosphate phosphodiesterase gamma-1 (Homo sapiens, UniProt P19174); assay: Counterscreen for inhibitors of phospholipase C isozymes (PLC-B3): Fluorescence-based biochemical high throughput dose response assay to identify inhibitors of phospholipase C isozymes (PLC-gamma1).
[3] = molecular target: T3, Serine/threonine-protein phosphatase (Homo sapiens, UniProt Q9BPW0); assay: inhibition of protein phosphatase 5 activity – biochemical, fluorescence, dose response (AID 2395)
T3 sequence (Q9BPW0 whole entry): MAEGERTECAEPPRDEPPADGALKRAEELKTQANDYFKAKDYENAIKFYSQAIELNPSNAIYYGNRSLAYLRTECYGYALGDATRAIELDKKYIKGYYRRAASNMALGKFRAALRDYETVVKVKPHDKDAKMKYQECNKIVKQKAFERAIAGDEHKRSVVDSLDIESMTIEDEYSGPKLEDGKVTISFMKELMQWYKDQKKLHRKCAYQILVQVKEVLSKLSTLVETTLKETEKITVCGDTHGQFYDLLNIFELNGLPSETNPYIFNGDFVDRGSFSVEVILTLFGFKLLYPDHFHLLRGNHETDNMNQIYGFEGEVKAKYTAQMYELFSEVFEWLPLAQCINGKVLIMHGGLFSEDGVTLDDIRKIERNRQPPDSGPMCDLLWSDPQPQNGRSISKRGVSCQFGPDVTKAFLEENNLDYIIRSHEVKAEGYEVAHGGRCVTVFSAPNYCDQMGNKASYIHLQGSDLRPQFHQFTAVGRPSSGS

[4] = molecular target: Dual specificity protein kinase CLK2 (Homo sapiens, UniProt P49760); format: functional
Chain of Dual specificity protein kinase CLK2 (P49760 whole entry, canonical isoform): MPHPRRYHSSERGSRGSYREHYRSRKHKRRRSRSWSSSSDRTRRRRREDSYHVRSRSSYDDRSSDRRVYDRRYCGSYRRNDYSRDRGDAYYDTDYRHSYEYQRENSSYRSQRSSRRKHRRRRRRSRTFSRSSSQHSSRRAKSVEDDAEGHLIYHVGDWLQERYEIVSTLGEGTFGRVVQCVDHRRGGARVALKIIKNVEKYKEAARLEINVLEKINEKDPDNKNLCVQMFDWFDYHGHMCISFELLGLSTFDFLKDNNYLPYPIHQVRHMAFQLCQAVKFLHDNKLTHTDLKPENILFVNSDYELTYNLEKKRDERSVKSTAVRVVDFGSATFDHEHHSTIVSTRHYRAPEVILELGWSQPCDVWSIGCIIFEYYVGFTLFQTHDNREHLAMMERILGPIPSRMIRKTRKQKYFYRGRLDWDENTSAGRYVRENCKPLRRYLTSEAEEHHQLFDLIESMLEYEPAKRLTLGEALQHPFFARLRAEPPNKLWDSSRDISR

[5] = molecular target: Phosphorylase b kinase gamma catalytic chain, liver/testis isoform (Homo sapiens, UniProt P15735); format: functional;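 also: PHKG2 measured as one member of a kinome-wide kinase panel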
[6] = molecular target: Serine/threonine-protein kinase PLK4 (Homo sapiens, UniProt O00444); format: functional;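 also: PLK4 measured as one member of a kinome-wide kinase profiling panel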
[7] = molecular target: Serine/threonine-protein kinase Chk2 (Homo sapiens, UniProt O96017); format: functional;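 also: CHEK2 entry within a kinome-wide screening panel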
SRSF protein kinase 1 = SRSF protein kinase 1 (Homo sapiens, UniProt Q96SB4); format: functional;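 also: measured as one member of a kinome-wide kinase profiling panel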
Chain of SRSF protein kinase 1 (Q96SB4 whole entry): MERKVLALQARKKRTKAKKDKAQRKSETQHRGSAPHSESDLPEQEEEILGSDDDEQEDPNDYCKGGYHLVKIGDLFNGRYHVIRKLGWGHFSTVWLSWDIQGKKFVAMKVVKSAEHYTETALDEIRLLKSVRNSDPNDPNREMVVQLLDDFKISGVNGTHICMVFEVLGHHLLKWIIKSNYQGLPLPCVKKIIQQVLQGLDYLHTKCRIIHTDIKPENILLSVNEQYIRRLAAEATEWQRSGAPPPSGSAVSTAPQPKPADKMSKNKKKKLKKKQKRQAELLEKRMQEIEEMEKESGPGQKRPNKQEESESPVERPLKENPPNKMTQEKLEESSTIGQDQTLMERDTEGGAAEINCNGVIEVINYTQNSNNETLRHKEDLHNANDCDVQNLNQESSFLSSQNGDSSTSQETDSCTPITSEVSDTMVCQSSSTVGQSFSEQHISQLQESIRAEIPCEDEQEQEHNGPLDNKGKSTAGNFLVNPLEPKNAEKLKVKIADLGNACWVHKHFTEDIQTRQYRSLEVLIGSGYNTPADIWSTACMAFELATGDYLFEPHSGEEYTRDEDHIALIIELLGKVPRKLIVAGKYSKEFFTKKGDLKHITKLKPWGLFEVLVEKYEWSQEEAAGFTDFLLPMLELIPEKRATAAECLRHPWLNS

[8] = molecular target: Mitogen-activated protein kinase 8 (Homo sapiens, UniProt P45983); format: functional;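 also: value comes from one member of a kinome-wide kinase profiling panel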
[9] = molecular target: Serine/threonine-protein kinase PAK 1 (Homo sapiens, UniProt Q13153); format: functional
[10] = molecular target: Protein-tyrosine kinase 2-beta (Homo sapiens, UniProt Q14289); format: functional
Chain of Protein-tyrosine kinase 2-beta (Q14289 whole entry): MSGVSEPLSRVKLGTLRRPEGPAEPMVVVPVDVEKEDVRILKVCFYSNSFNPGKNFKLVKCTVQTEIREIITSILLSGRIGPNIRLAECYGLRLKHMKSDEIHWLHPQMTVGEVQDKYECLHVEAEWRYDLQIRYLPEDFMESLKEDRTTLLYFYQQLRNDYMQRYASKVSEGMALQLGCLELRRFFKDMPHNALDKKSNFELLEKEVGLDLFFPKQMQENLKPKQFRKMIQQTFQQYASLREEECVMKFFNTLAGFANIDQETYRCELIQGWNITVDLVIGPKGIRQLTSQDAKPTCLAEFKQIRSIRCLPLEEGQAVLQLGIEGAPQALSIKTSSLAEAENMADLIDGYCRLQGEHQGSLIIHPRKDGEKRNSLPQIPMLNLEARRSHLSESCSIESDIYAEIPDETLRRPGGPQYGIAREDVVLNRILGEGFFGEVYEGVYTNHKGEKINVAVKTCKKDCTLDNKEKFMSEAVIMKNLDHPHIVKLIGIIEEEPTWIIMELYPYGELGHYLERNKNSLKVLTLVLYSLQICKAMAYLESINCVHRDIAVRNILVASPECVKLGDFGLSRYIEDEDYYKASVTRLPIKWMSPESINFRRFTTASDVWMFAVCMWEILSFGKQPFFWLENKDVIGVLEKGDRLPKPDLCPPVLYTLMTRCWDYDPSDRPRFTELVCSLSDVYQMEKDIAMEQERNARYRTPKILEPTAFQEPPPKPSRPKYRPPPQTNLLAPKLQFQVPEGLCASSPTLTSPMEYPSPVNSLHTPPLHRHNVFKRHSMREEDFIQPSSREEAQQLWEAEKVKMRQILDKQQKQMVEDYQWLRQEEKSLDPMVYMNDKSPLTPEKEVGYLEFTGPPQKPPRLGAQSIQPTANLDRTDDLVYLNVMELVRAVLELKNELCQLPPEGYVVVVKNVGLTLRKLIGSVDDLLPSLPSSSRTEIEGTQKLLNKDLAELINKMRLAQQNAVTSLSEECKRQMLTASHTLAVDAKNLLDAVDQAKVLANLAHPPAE

[11] = molecular target: Receptor-type tyrosine-protein kinase FLT3 (Homo sapiens, UniProt P36888); format: functional;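 also: FLT3 was tested as one member of a kinome-wide kinase panel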
Chain of Receptor-type tyrosine-protein kinase FLT3 (P36888 whole entry): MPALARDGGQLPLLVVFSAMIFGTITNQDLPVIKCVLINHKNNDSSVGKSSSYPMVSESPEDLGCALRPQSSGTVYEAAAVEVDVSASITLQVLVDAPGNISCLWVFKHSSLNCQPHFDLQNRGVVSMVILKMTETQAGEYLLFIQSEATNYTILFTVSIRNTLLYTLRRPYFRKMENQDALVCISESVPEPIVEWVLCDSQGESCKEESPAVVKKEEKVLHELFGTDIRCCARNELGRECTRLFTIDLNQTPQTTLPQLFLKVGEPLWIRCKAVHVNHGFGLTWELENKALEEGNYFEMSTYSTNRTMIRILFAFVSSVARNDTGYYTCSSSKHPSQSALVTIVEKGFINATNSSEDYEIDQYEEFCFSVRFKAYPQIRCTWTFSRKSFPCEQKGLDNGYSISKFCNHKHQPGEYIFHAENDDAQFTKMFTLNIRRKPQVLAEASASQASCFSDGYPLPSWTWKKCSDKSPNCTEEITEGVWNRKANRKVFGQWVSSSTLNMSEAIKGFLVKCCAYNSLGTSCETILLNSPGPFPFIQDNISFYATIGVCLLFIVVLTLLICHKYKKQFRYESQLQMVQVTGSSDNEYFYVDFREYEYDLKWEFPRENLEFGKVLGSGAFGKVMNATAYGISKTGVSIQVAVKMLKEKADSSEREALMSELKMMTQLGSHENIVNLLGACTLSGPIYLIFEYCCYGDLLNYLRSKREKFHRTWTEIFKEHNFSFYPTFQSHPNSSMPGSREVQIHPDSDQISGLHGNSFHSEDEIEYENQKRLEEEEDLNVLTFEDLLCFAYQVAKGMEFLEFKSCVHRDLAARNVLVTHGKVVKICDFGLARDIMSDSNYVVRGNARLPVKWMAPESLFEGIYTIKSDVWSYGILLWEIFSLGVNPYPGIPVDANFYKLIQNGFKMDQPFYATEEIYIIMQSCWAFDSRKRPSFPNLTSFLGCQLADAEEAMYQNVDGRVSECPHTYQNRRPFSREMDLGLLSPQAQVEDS

[12] = molecular target: MAP kinase-interacting serine/threonine-protein kinase 2 (Homo sapiens, UniProt Q9HBH9); format: functional
[13] = molecular target: Cyclin-dependent kinase 5 (Homo sapiens, UniProt Q00535); format: functional;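 also: CDK5 measured as one member of a kinase profiling panel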
[14] = molecular target: Maternal embryonic leucine zipper kinase (Homo sapiens, UniProt Q14680); format: functional
[15] = molecular target: 3-phosphoinositide-dependent protein kinase 1 (Homo sapiens, UniProt O15530); format: functional;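 also: value comes from the Navigating the Kinome panel, PDPK1 member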
[16] = molecular target: Fibroblast growth factor receptor 3 (Homo sapiens, UniProt P22607); format: functional
[17] = molecular target: Glycogen synthase kinase-3 beta (Homo sapiens, UniProt P49841); format: functional;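 also: value comes from a broad kinome profiling panel, with GSK3B as the panel member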
Chain of Glycogen synthase kinase-3 beta (P49841 whole entry): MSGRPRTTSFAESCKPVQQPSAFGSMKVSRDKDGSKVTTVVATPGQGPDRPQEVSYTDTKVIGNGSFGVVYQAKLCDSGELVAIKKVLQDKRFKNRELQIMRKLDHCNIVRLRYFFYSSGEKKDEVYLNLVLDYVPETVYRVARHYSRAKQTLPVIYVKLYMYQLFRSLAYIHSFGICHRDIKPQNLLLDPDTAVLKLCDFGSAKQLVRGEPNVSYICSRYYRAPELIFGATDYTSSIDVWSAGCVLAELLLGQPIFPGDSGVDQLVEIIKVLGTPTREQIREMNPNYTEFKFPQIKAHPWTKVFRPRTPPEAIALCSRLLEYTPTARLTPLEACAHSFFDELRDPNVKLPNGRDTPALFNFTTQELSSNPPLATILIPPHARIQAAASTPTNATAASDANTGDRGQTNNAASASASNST

[18] = molecular target: BDNF/NT-3 growth factors receptor (Homo sapiens, UniProt Q16620); format: functional;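 also: NTRK2 measured as one member of a broad kinome-wide kinase profiling panel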
Chain of BDNF/NT-3 growth factors receptor (Q16620 whole entry): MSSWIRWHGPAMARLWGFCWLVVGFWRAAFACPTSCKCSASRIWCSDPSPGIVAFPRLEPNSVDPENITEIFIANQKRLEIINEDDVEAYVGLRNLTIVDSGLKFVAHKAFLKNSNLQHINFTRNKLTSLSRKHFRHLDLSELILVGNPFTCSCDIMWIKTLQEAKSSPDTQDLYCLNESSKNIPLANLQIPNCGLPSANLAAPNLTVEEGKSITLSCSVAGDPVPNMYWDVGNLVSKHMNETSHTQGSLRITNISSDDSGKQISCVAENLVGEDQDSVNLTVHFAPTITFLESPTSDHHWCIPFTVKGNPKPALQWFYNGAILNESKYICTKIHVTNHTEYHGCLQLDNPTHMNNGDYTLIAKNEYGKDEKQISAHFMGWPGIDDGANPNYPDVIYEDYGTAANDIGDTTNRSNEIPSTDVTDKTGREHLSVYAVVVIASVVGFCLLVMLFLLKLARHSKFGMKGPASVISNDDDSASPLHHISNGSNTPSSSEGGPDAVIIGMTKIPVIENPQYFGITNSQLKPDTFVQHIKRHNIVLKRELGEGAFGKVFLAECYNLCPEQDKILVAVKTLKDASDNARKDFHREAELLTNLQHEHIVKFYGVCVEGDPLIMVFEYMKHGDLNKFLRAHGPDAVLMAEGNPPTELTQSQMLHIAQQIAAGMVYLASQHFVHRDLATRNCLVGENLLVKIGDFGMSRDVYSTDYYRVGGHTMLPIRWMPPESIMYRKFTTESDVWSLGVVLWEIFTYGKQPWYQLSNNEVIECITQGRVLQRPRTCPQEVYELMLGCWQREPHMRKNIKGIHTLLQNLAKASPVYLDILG

SMILES: CCCc1nc2c(=O)n(C)c(=O)nc-2n(C)n1
EC50 (Mu-type opioid receptor): > 92.5 µM (inactive)
AC50 (Caspase-6): 0.0636 µM (active)
IC50 [1]: 0.161 µM (active)
IC50 [2]: > 1.51 µM (active)

IC50 [3]: 19.3 µM (not active)
IC50 [1]: > 128 µM (inactive)
SMILES: CC(=O)c1ccc(NC2=C(N3CCOCC3)C(=O)c3ccccc3C2=O)cc1

Ki [4]: > 7.94 µM (inactive)
Ki [5]: > 5.01 µM (inactive)
Ki [6]: 0.2 µM (active)
Ki [7]: > 5.01 µM (inactive)
Ki (SRSF protein kinase 1): > 7.94 µM (inactive)
Ki [8]: > 3.16 µM (inactive)
Ki [9]: > 10 µM (inactive)
Ki [10]: 0.158 µM (active)
Ki [11]: 0.0501 µM (active)
Ki [12]: > 10 µM (inactive)
Ki [13]: > 10 µM (inactive)
Ki [14]: 0.158 µM (active)
Ki [15]: > 3.98 µM (inactive)
Ki [16]: > 2 µM (inactive)
Ki [17]: 2 µM (active)
Ki [18]: > 5.01 µM (inactive)
SMILES: COc1cc2ncn(-c3cc(OCc4ccccc4C(F)(F)F)c(C(N)=O)s3)c2cc1OC [GW843682X]
